Reference: patent US11672775B2, “Treprostinil prodrugs” (United Therapeutics Corporation, priority 2016, dated 2023)
pEC50: −log10 of the molar value. In brackets after ≈: the same amount, converted by molar mass. Read-outs that look alike come from different tables or passages of the source.

How the values were obtained:
Sprague Dawley rats [1] = experiment: Rat intraplantar injection model, von Frey test (Example 10); type: in vivo, Sprague Dawley rat; details: 1 μg/mL or 100 μg/mL; 15 and 90 minutes post-injection
Description: (§1) Male Sprague Dawley rats (n=56) were allocated into 7 groups of 8 animals per group. […] Each group was compared to the phosphate buffer (50-mM phosphate buffer with 50-mM sodium chloride at pH=7.4) treated group, which served as the control (Group 1).
(§2) Animals were administered 0.1 mL of test material by subcutaneous injection into the paw pad (Intraplantar injection) at time zero. Then, the animals were subsequently evaluated for their response to mechanical (von Frey filaments) and thermal stimuli, 15 and 90 minutes post-injection. The von Frey test was conducted prior to the thermal test, which followed immediately within minutes for each animal. In addition, clinical observation scoring of the animal's reaction to injection was conducted.
Mechanical pain sensitivity was tested using the von Frey test, which measures the withdrawal force threshold of the animals. The lower the force applied represents a greater sensitivity to the stimulus. The von Frey test was performed 15 and 90 minutes post-test item injection.

EP2 receptor = target: T1, EP2 receptor (Homo sapiens, UniProt P43116); experiment: cAMP assay (TR-FRET or HTRF kit, forskolin), Examples 5 and 6; type: cell-based; details: read-out: EC50, EP receptor
T1 construct: expressed in transfected cells
Description: (§3) [table] Prodrug XV (for structure see FIG. 10) as well as treprostinil were tested for 3 G-protein-coupled receptors (GPCRs), namely DP1, EP2, and IP, using cyclic adenosine monophosphate (cAMP) assay. Cyclic AMP assay kits: Multiscreen™ TR-FRET cAMP 1.0 No Wash Assay Kit (Multispan, Inc., Cat #MSCM01-25) and HTRF cAMP HiRange Kit (CisBio, Cat #62AM6PEC). Instruments: FlexStation III (Molecular Devices). Cyclic AMP (cAMP) Assay: cAMP assays were performed according to the manufacturer's protocol using Multiscreen™ TR-FRET cAMP 1.0 No Wash Assay Kit or HTRF cAMP HiRange Kit. […] The reaction was terminated by sequentially adding sequentially adding trFluor™ Eu-labeled cAMP and trFluor™ 650-labeled anti-cAMP antibody or D2-labeled cAMP and cryptate-labeled anti-cAMP antibody in lysis buffer. The plate was then incubated at room temperature for 60 minutes before reading fluorescent emissions at 620 nm and 665 or 668 nm with excitation at 314 nm on FlexStation III (Molecular Devices). Cyclic AMP (cAMP) assays: Cyclic AMP assay results are shown as “Ratio 665/620×10,000” (ratio of fluorescence at 665 nm and 620 nm×10,000) or “Ratio 668/620×10,000” (ratio of fluorescence at 668 nm and 620 nm×10,000). Data in graphs were represented in Mean±SD. Dose-dependent responses were fitted with sigmoidal dose-response curves allowing variable slopes using GraphPad Prism versions 4, 5 or 6 (Graphpad Prism). Treprostinil Prodrug XIV (for structure see FIG. 10) as well as treprostinil were tested for 3 G-protein-coupled receptors (GPCRs), namely DP1, EP2, and IP, using cyclin adenosine monophosphate (cAMP) assay. Cyclic AMP assay kits: Multiscreen™ TR-FRET cAMP 1.0 No Wash Assay Kit (Multispan, Inc., Cat #MSCM01-25) and HTRF cAMP HiRange Kit (CisBio, Cat #62AM6PEC). Cyclic AMP (cAMP) Assay: cAMP assays were performed according to the manufacturer's protocol using Multiscreen™ TR-FRET cAMP 1.0 No Wash Assay Kit or HTRF cAMP HiRange Kit. […] The reaction was terminated by sequentially adding sequentially adding trFluor™ Eu-labeled cAMP and trFluor™ 650-labeled anti-cAMP antibody or D2-labeled cAMP and cryptate-labeled anti-cAMP antibody in lysis buffer. The plate was then incubated at room temperature for 60 minutes before reading fluorescent emissions at 620 nm and 665 or 668 nm with excitation at 314 nm on FlexStation III (Molecular Devices). Cyclic AMP (cAMP) assays: Cyclic AMP assay results are shown as “Ratio 665/620×10,000” (ratio of fluorescence at 665 nm and 620 nm×10,000) or “Ratio 668/620×10,000” (ratio of fluorescence at 668 nm and 620 nm×10,000). Data in graphs were represented in Mean±SD. Dose-dependent responses were fitted with sigmoidal dose-response curves allowing variable slopes using GraphPad Prism versions 4, 5 or 6 (Graphpad Prism).

IP1 receptor = target: T2, IP1 receptor (Homo sapiens, UniProt P43119); experiment: as above; type: cell-based; details: read-out: EC50, IP receptor
T2 construct: expressed in transfected cells
Description: as §3

DP1 receptor = target: T3, DP1 receptor (Homo sapiens, UniProt Q13258); experiment: as above; type: cell-based; details: read-out: EC50, DP receptor
T3 construct: expressed in transfected cells
T3 sequence (Q13258 1-359): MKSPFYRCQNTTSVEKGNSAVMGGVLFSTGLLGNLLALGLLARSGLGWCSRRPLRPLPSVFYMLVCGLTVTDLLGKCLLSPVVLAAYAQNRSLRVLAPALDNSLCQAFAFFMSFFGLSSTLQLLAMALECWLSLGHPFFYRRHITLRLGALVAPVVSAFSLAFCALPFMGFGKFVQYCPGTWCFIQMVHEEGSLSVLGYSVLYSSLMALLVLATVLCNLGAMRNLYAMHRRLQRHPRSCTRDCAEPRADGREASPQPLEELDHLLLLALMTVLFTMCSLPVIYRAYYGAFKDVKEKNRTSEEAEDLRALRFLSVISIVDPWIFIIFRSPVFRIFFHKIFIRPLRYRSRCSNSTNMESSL
Description: as §3

Sprague Dawley rats [2] = experiment: Rat intraplantar injection model, thermal pain sensitivity (Example 10); type: in vivo, Sprague Dawley rat; details: 1 μg/mL or 100 μg/mL; 15 minutes post-administration
Description: as §1, §2
The sensitivity of animals to a thermal pain stimulus was assessed immediately following the von Frey test. The time until withdrawal of the right-injected leg from a heat source was measured, and the lower (faster) the time of response represents a greater sensitivity to the stimulus. The test was performed 15 and 90 minutes post-test item injection.

[3] = Equilibrium solubility in vehicle; type: physicochemical; details: aqueous buffer, thermodynamic from solid, 20 mM sodium phosphate dibasic with 125 mM sodium chloride; for solubility thermodynamic at 23 h: T0 hours, read-out: Equilibrium solubility, T0 hours Concentration; for solubility thermodynamic at 24 h: T24 hours, read-out: Equilibrium solubility, T24 hours Concentration; for solubility thermodynamic at 72 h: T72 hours, read-out: Equilibrium solubility, T72 hours Concentration
Description: (§4) Each prodrug was dissolved in a vehicle containing 20 mM sodium phosphate dibasic with 125 mM sodium chloride. Prodrugs were prepared at saturation concentrations by weighing 15-30 mg of prodrug in to a 4 mL clear glass vial and dissolving in an appropriate volume of vehicle (0.5-1.0 mL) to achieve a nominal saturation concentration of 30 mg/mL. The solutions were mixed for 23 hours on a rotating mixer. […] The resultant supernatant solutions were isolated from undissolved prodrug by centrifugation at 15000 RPM for 15 min. Supernatants were transferred to clear glass vials and stored at ambient temperature. […] The resultant samples were assayed against treprostinil to determine prodrug concentration. At each testing interval (0, 24, 72 hours) the supernatant was assayed for prodrug concentration and purity by area %.

[4] = Solution stability in vehicle (UPLC area %); type: physicochemical; details: for Solution stability, T0 Purity: ambient
Description: as §4

[5] = Stability in 200 mM potassium phosphate buffer (pH 7.4); type: physicochemical; details: 1 μM
Description: According to the earlier aqueous solution stability study, all prodrugs are stable in 20 mM Sodium Phosphate dibasic with 125 mM NaCl at saturation concentrations (3-30 mg/ml). Also, in the method development work, it was also observed that the most unstable prodrugs III, IV and XIV were stable in 200 mM potassium phosphate buffer (pH 7.4) at a low concentration of 1 μM.

[6] = In vitro metabolic stability of prodrugs in liver microsomes, across all species; type: in vitro ADME, human, Beagle dog, Sprague Dawley rat, Cynomolgus monkey
Description: In the second assay, four prodrugs (III, IV, VII and XIV) were tested in Cyno monkey liver microsomes.

[7] = 20 mM sodium phosphate dibasic with 125 mM sodium chloride, T0

T1 sequence (P43116 whole entry): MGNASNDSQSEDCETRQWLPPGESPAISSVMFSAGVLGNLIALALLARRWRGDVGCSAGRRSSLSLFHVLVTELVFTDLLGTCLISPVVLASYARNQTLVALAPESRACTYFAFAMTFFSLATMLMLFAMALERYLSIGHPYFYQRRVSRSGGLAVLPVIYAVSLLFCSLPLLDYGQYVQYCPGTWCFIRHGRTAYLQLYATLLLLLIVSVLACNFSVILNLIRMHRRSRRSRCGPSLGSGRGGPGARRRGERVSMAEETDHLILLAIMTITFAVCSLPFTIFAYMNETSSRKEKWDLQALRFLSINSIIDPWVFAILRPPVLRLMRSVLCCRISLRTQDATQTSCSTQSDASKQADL
T2 sequence (P43119 whole entry): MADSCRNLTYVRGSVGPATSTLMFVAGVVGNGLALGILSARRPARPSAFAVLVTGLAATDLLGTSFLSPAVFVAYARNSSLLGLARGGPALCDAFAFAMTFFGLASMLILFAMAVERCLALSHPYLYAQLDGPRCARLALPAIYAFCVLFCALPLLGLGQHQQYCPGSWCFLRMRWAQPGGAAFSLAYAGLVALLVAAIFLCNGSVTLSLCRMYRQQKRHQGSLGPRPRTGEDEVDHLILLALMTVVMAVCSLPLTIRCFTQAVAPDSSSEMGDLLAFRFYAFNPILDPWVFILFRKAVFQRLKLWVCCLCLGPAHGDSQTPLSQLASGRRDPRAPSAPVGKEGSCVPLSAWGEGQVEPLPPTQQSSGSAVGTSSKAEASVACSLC

Row | solubility thermodynamic at 23 h [3] | solubility thermodynamic at 24 h [3] | solubility thermodynamic at 72 h [3] | Solution stability, T0 Purity [4, 7] | Solution stability, T24 hours Purity ([4]; same vehicle) | Solution stability, T72 hours Purity ([4]; same vehicle) | stability in buffer [5] | relative stability of the prodrugs in liver microsomes [6] | Compound | also measured
1 |  |  |  |  |  |  |  |  | CCCCC[C@H](O)CC[C@@H]1[C@H]2Cc3cccc(OCC(=O)OCC(=O)O)c3C[C@H]2C[C@H]1O [Prodrug XV] | von Frey withdrawal force threshold vs phosphate buffer group (Sprague Dawley rats [1]): reduced withdrawal force threshold; pEC50 (EP2 receptor; Table 3 (Example 5)): 7.38; pEC50 (IP1 receptor; Table 3 (Example 5)): 8.37; pEC50 (DP1 receptor; Table 3 (Example 5)): 8.16; thermal paw withdrawal time vs phosphate buffer treated group (Sprague Dawley rats [2]): statistically significantly faster paw withdrawal time
2 | 12.5 mg/mL (≈ 27.9 mM) | 12.2 mg/mL (≈ 27.2 mM) | 12.9 mg/mL (≈ 28.8 mM) | 99.19 % Area | 99.02 % Area | 99.15 % Area | stable | least stable | CCCCC[C@@H](CC[C@@H]1[C@H]2Cc3cccc(OCC(=O)O)c3C[C@H]2C[C@H]1O)OC(=O)OC [Prodrug IV, side chain methyl carbonate of treprostinil] | 
3 | 29.5 mg/mL (≈ 63.1 mM) | 27.5 mg/mL (≈ 58.8 mM) | 26.6 mg/mL (≈ 56.9 mM) | 94.20 % Area | 94.25 % Area | 94.56 % Area | stable | least stable | CCCCC[C@H](O)CC[C@@H]1[C@H]2Cc3cccc(OCC(=O)NS(C)(=O)=O)c3C[C@H]2C[C@H]1O [Prodrug XIV, treprostinil methanesulfonamide] | solubility at 23 h ([3]; approximate, read-out: Solubility in the selected vehicle): ~30 mg/mL (≈ 64.2 mM); pEC50 (EP2 receptor; Table 4 (Example 6)): 7.17; pEC50 (IP1 receptor; Table 4 (Example 6)): 8.48; pEC50 (DP1 receptor; Table 4 (Example 6)): 7.41; T0 Residual Treprostinil [4, 7]: 0.08 % Area; treprostinil formation in the vehicle ([4]; formed over 72 hours): 0.15%; T24 Residual Treprostinil ([4]; same vehicle, T24): 0.13 % Area; T72 Residual Treprostinil ([4]; same vehicle, T72): 0.23 % Area
